In patent publication US5300672A (priority 1992, dated 1994):
Converted amounts (≈) assume the structure as drawn. Where two headings read alike, the source gives them in different places.

What was measured:
[1] = test system: Erysiphe graminis (f. sp. tritici); test: whole plant or invertebrate; type: in vivo; conditions: for pest or weed control at 200 ppm / pest or weed control at 100 ppm: Blumeria graminis, read-out: % Control WPM
[2] = test system: Puccinia recondita (f. sp. tritici Races PKB and PLD); test: whole plant or invertebrate; type: in vivo
Pythium ultimum = Pythium ultimum in vitro Fungitoxicity Assay in liquid culture; type: cell-based, Pythium ultimum (ATCC 26083); conditions: mycelial dry weight, 48 h at 25° C., shaking at 60 rpm
Method: Selected compounds of Examples 1-120 were subjected also to the following in vitro fungitoxicity assay against Pythium ultimum in a liquid culture, with the results as indicated in Table 6.
Pythium ultimum Fungitoxicity Assay
A dilution series of the test compound was prepared in dimethylsulfoxide, and 0.1 ml of each dilution was added to 19.9 ml of a liquid asparagine-sucrose medium (D. C. Erwin and K. Katznelson (1971), Can. J. Microbiol. 7, 15) in 9 cm diameter petri dishes to give the desired final concentrations of test compound. Plates were inoculated with mycelial plugs, 7 mm diameter, taken from the growing edge of 48 h old cultures of Pythium ultimum, (ATCC 26083), grown on potato dextrose agar. Two replicate plates were used for each treatment. The increase in mycelial dry weight was determined after growth for 48 h at 25° C. with shaking at 60 rpm. EC50 values were calculated from dose response curves.

Phytophthora infestans = test: whole plant or invertebrate; type: in vivo; conditions: for pest or weed control at 200 ppm / pest or weed control at 100 ppm: Phytophthora infestans, in Solanum lycopersicum, 96 h; for pest or weed control at 200 ppm: read-out: % Control TLB, application rate 200 ppm
Piricularia oryzae = test: whole plant or invertebrate; type: in vivo
[3] = test system: Pellicularia filamentosa (f. sp. sasiki); test: whole plant or invertebrate; type: in vivo; conditions: 120 h; read-out: % Control RSB
Pseudomonas fluorescens = test: Alternate Minimum Inhibitory Concentrations Test (Table 4), Ps.fl; type: cell-based; conditions: Table 4 alternate test, 250 ppm to 0.8 ppm in TSB, 72 hours, 30° C.; for MIC: Pseudomonas fluorescens, read-out: MIC Ps.fl
Method in brief: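 Broth microdilution MIC in TSB: compound (from acetone stock) serially diluted 1:1 from 250 ppm to 0.8 ppm, inoculated with diluted 24 h culture. After 3 days at 30 °C, the lowest concentration with no growth was recorded as MIC.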

[4] = test system: Pseudoperonospora cubensis; test: whole plant or invertebrate; type: in vivo
[5] = test system: Puccinia graminis (f. sp. tritici Race 15B-2); test: whole plant or invertebrate; type: in vivo; conditions: for pest or weed control at 200 ppm / pest or weed control at 100 ppm: Puccinia graminis, 336 h, read-out: % Control WSR
[6] = Puccinia recondita, 240 h, read-out: % Control WLR
[7] = Globisporangium ultimum, read-out: EC 50
[8] = Pyricularia oryzae, read-out: % Control RB, application rate 200 ppm
[9] = Pseudoperonospora cubensis, in Cucumis sativus, 168 h, read-out: % Control CDM
[10] = read-out: % Control TLB, application rate 100 ppm
[11] = Pyricularia oryzae, read-out: % Control RB

SMILES | pest or weed control at 200 ppm [1] | pest or weed control at 200 ppm [2, 6] | EC50 (Pythium ultimum; [7]) | pest or weed control at 200 ppm (Phytophthora infestans) | pest or weed control at 200 ppm (Piricularia oryzae; [8]) | pest or weed control at 200 ppm [3] | MIC (Pseudomonas fluorescens) | pest or weed control at 100 ppm [1] | pest or weed control at 100 ppm [2, 6] | also measured
CCCCCCCCNC(=O)/C=C\SC(=O)c1ccc2ccccc2n1 [Compound 76, N-octyl-cis-3-[(2-quinoline)carbonylthio]acrylamide] | 0% | 0% | 13.2 mg/L (≈ 35.6 µM) | 0% | 0% | 0% | > 250 mg/L |  |  | 
CCCCCCCCNC(=O)/C=C\SC(=O)c1nccc2ccccc12 [Compound 73, N-octyl-cis-3-[(1-isoquinoline)carbonylthio]acrylamide] | 0% | 25% | 8.4 mg/L (≈ 22.7 µM) | 0% | 0% | 0% | > 250 mg/L |  |  | 
O=C(/C=C\SC(=O)c1ccccc1)NCCN1CCOCC1 [Compound 116, N-[2-(4-morpholine)ethyl]-cis-3-(benzoylthio)acrylamide] | 0% | 0% | 10.3 mg/L (≈ 32.1 µM) | 0% |  |  | > 250 mg/L |  |  | pest or weed control at 200 ppm [4, 9]: 0%; pest or weed control at 12 ppm (Piricularia oryzae; Pyricularia oryzae, read-out: % Control RB, application rate 12 ppm): 50%
CCCCCCCCNC(=O)/C=C\SC(=O)CC(C)c1ccccc1 (stereo not drawn) [Compound 78, N-octyl-cis-3-[(3-phenylbutanoyl)thio]acrylamide] | 0% | 0% | 23.9 mg/L (≈ 66.1 µM) | 0% | 0% | 0% | > 250 mg/L |  |  | 
CCCCCCCCNC(=O)/C=C\SC(=O)c1ccc(Br)cn1 [Compound 53, N-octyl-cis-3-[(5-bromo-2-pyridine)carbonylthio]acrylamide] |  |  | 10.2 mg/L (≈ 25.5 µM) |  |  |  | > 250 mg/L | 0% | 0% | pest or weed control at 100 ppm (Phytophthora infestans; [10]): 0%; pest or weed control at 100 ppm [3]: 0%
CCCCCCCCNC(=O)/C=C\SC(=O)/C=C/c1ccc(C(F)(F)F)cc1 [Compound 70, N-octyl-cis-3-[(trans-3-(4-(trifluoromethyl)phenyl)propenoyl)thio]acrylamide] | 0% | 0% | 5 mg/L (≈ 12.1 µM) | 0% | 50% | 0% | > 250 mg/L |  |  | 
CCCCCCCCNC(=O)/C=C\SCn1cncn1 [Compound 7, N-octyl-cis-3-[1-(1,2,4-triazoyl)methylthio]acrylamide] |  |  | 50 mg/L (≈ 169 µM) |  |  |  | > 250 mg/L | 0% | 0% | pest or weed control at 100 ppm (Phytophthora infestans; [10]): 0%; pest or weed control at 6 ppm [3]: 50%
CCCCCCCCNC(=O)/C=C\SCC(O)c1ccco1 (centres unmarked) [Compound 42] |  |  |  |  |  |  |  |  |  | % Control CDM ([4]; in vivo): 50 % Control; % Control WSR ([5]; application rate 200 ppm): 50 % Control; % Control WPM ([1]; in vivo): 0 % Control; % Control WLR ([2]; in vivo): 0 % Control; EC50 (Pythium ultimum): 9 ppm; % Control TLB (Phytophthora infestans; application rate 200 ppm): 0 % Control; % Control RB (Piricularia oryzae; in vivo): 90 % Control; MIC Ps.fl (Pseudomonas fluorescens): > 250 Ppm
CCCCCCCCNC(=O)/C=C\SCc1ccc(C(F)(F)F)cc1 [Compound 33, N-octyl-cis-3-[(4-(trifluoromethyl)benzyl)thio]acrylamide] |  |  |  |  |  |  | > 250 mg/L | 85% | 0% | pest or weed control at 50 ppm [4, 9]: 50%; pest or weed control at 200 ppm [5]: 75%; pest or weed control at 100 ppm (Phytophthora infestans; read-out: % Control TLB): 80%; pest or weed control at 25 ppm (Piricularia oryzae; Pyricularia oryzae, read-out: % Control RB, application rate 25 ppm): 80%; pest or weed control at 100 ppm [3]: 0%
CCCCCCCCNC(=O)/C=C\SC(=O)/C=C/c1ccccc1 [Compound 14, N-octyl-cis-3-[(trans-3-phenylprop-2-enoyl)thio]acrylamide] |  |  |  |  |  |  | > 250 mg/L | 0% | 0% | pest or weed control at 50 ppm [4, 9]: 50%; pest or weed control at 200 ppm [5]: 75%; pest or weed control at 100 ppm (Phytophthora infestans; read-out: % Control TLB): 90%; pest or weed control at 100 ppm (Piricularia oryzae; [11]): 100%; pest or weed control at 100 ppm [3]: 0%
CCCCCCCCNC(=O)/C=C\SC(=O)c1cccn1C [Compound 61, N-octyl-cis-3-[(1-methyl-2-pyrrole)carbonylthio]acrylamide] | 0% | 0% | 59.5 mg/L (≈ 185 µM) | 0% | 0% | 0% | > 250 mg/L |  |  | 
CCCCCCCCNC(=O)/C=C\SC(=O)c1ccc(OC)cc1 [Compound 16, N-octyl-cis-3-[(4-methoxybenzoyl)thio]acrylamide] |  |  |  |  |  |  | > 250 mg/L | 0% | 75% | pest or weed control at 12 ppm [4, 9]: 50%; pest or weed control at 100 ppm [5]: 75%; pest or weed control at 100 ppm (Phytophthora infestans; read-out: % Control TLB): 90%; pest or weed control at 25 ppm (Piricularia oryzae; [11]): 100%; pest or weed control at 100 ppm [3]: 0%
CCCCCCCCNC(=O)/C=C\SC(=O)/C=C/c1ccc([N+](=O)[O-])cc1 [Compound 96, N-octyl-cis-3-[(trans-3-(4-nitrophenyl)propenoyl)thio]acrylamide] | 75% |  |  | 0% |  | 50% | > 250 mg/L |  |  | pest or weed control at 200 ppm [4, 9]: 95%; pest or weed control at 100 ppm [5]: 0%; pest or weed control at 50 ppm [2, 6]: 0%; pest or weed control at 200 ppm (Piricularia oryzae; [11]): 95%
CCCCCCCCNC(=O)/C=C\SC(=O)C1CCc2ccccc2C1 (stereo not drawn) [Compound 74, N-octyl-cis-3-[(1,2,3,4-tetrahydronaphth-2-oyl)thio]acrylamide] | 0% | 0% | 5 mg/L (≈ 13.4 µM) | 0% | 0% | 0% | > 250 mg/L |  |  | 
CCCCCCCCNC(=O)/C=C\SC(=O)c1ccc(N=C=S)cc1 [Compound 48, N-octyl-cis-3-[(4-isothiocyanobenzoyl)thio]acrylamide] |  |  | 8.2 mg/L (≈ 21.8 µM) |  |  |  | > 250 mg/L |  |  | pest or weed control at 100 ppm (Phytophthora infestans; [10]): 0%
